Usually MIC stands for the lowest concentration that inhibits growth of the organism. As a reminder, the LD50 is the dose expected to kill half of the subjects tested. Higher therefore signals a less toxic substance.

Structures are written as SMILES. Converted amounts (≈) assume the structure as drawn. Like-named read-outs stand apart in the source and are kept apart here.

Here are results for three compounds from patent publication US4000262A, “5-Epi-amino and 5-epi-azido-4,6-di-O-(aminoglycosyl)-2,5-dideoxystreptamines 1-N-alkyl-5-epi-amino and 1-N-alkyl-5-epi-azido-4,6-di-O-(aminoglycosyl)-2,5-dideoxystreptamines” (priority 1975, dated 1976).

The test system of data set [1] is gram positive bacteria and gram negative bacteria. Description: antibacterial activity (general statements, standard dilution tests). Format: cell-based. To be noted: gram negative organisms resistant to the 5-hydroxy precursors.
A further data set has as its system Streptococcus pyogenes C. Description: in vitro minimal inhibitory concentration, standard tube dilution method. The class given is cell-based. An excerpt:
In Table 1, set forth below is shown the in vitro minimal inhibitory concentration (MIC) of gentamicin C2a against representative gram-positive and gram-negative bacteria. The results are derived using the standard tube dilution method in Mueller-Hinton broth.
In Table 2, set forth below is shown the in vitro minimal inhibitory concentration (MIC) of gentamicin C2b against representative gram-positive and gram-negative bacteria. The results are derived using the standard tube dilution method in Mueller-Hinton broth.

The test system of data set [2] is gram-positive and gram-negative bacteria. In words: in vitro antibacterial spectrum / activity compared with gentamicin C components. The class given is cell-based. To be noted: as the free base.
Data set [3] is described as follows: acute intravenous toxicity. To be noted: mouse, in vivo, male CF-1 mice weighing 20 grams each.

As for `CNC1C(O)C(OC2C(N)CC(N)C(OC3OC(CN)CCC3N)C2N)OCC1(C)O` (stereo not drawn) [5-epi-amino-5-deoxygentamicin C1a], the cidal activity entry in data set [1] is given as “cidal against certain gram negative organisms which are resistant to the 5-hydroxy precursors”.

Consider `CN[C@@H]1[C@@H](O)[C@@H](O[C@@H]2[C@@H](O)[C@H](O[C@H]3O[C@H]([C@H](C)N)CC[C@H]3N)[C@@H](N)C[C@H]2N)OC[C@]1(C)O` [gentamicin C2a], for which, in the data set with Streptococcus pyogenes C, the minimal inhibitory concentration (MIC) is 7.5 mg/L (≈ 16.2 µM). Also, the “activity relative to the gentamicin "C" complex” value in data set [2] was “about 74%”. This compound registered an LD50 in data set [3] of 110 mg/kg.

In the case of `CNC[C@@H]1CC[C@@H](N)[C@@H](O[C@H]2[C@H](O)[C@@H](O[C@H]3OC[C@](C)(O)[C@H](NC)[C@H]3O)[C@H](N)C[C@@H]2N)O1` [gentamicin C2b], the MIC in the data set with Streptococcus pyogenes C (Mueller-Hinton broth, read-out: MIC) came out at 3 mg/L (≈ 6.47 µM).
